Data on 15 molecules can be found in US5760036A, “Aminediol protease inhibitors” (E. R. Squibb & Sons, Inc., priority 1995, dated 1998).

By IC50 is commonly meant the concentration that gives 50% inhibition. A word on the inhibition: it is how much of the control response was suppressed.

In assay [1] the test system is RF strain of HIV (CEM-SS cells). The assay is described as follows: Cell Culture Anti-HIV Activity (cell viability, formazan). To be noted: Human immunodeficiency virus 1, CEM-SS, 144 h, CEM-SS cells, RF strain of HIV, multiplicity of infection 0.04, 6 days at 37° C., 450 nm; read-out: HIV (CEM Cells) IC50. The class given is cell-based. The method, then:
The antiviral activity of aminediol inhibitors of the present invention was evaluated by a microculture method which determines the increase in cell viability of an infected culture when a drug is added. The assay depends on the metabolic reduction of tetrazolium reagent by viable cells to yield a soluble colored formazan product.
The assay was performed as follows: suspensions of CEM-SS cells (5000/well) were infected with the RF strain of HIV at a multiplicity of infection at 0.04 in a 96-well plate. The compounds of the present invention listed in the following Table 1, serially diluted in half-log fashion, were added to the infected and uninfected control cells. Untreated (infected and uninfected) cells were included as controls. Following incubation for 6 days at 37° C., viable cells in each well were quantitated by the visible light absorbance at 450 nm.
The IC50 was calculated as the concentration of drug that increased the formazan production in virally infected cells to 50% of that produced by uninfected cells in the absence of drug.

The target in a further assay is T1, HIV protease (Human immunodeficiency virus type 1 group M subtype B, UniProt P04585).
T1 construct: and purified protease
The assay is described as follows: HIV Protease Assay. Conditions: pH 5.5, 10 μM inhibitor, 4% DMSO, 450 μM substrate, pH 5.5, 30 minutes at 37° C., RP-HPLC; read-out: HIV Protease % Inhibition at 10 μM. The class given is biochemical. In short, it runs like this: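 Purified protease cleaved 450 μM octapeptide substrate in 50 mM sodium acetate pH 5.5 with 100 μg/ml BSA for 30 minutes at 37° C; product analyzed by reverse-phase HPLC at UV220 after H3PO4 quench. Inhibitors tested at final 10 μM with 4% DMSO.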

With `CC(C)[C@H](NC(=O)CO)C(=O)N[C@@H](Cc1ccccc1)[C@H](O)CNC[C@@H](O)[C@H](Cc1ccccc1)NC(=O)OC(C)(C)C` (relative stereo) [Compound 259, [1R*, 2S* (2S*, 3R*)]-N-[3-[[3-[[(1,1-Dimethylethoxy)carbonyl]amino]-2-hydroxy-4-phenylbutyl]amino]-2-hydroxy-1-(phenylmetyl)propyl]-N^2-(hydroxyacetyl)-L-valinamide], the IC50 in assay [1] was 5000 nM. Moreover, the inhibition at 10 µM on HIV protease came to 99%.

As to `CC(C)[C@H](NC(=O)CCc1c[nH]c2ccccc12)C(=O)N[C@@H](Cc1ccccc1)[C@H](O)CNC[C@@H](O)[C@H](Cc1ccccc1)NC(=O)OC(C)(C)C` (relative stereo) [Compound 260, [1R*,2S*(2S*,3R*)]-N-[3-[[3-[[(1,1-Dimethylethoxy)carbonyl]amino]-2-hydroxy-4-phenylbutyl]amino]-2-hydroxy-1-(phenylmethyl)propyl]-N^2-[3-(1H-indol-3-yl)-1-oxo-propyl]-L-valinamide], the IC50 in assay [1] was found to be 290 nM. For the same molecule, the inhibition at 10 µM on HIV protease stood at 100%.

`CNC(=O)N[C@H](C(=O)N[C@@H](Cc1ccccc1)[C@H](O)CNC[C@@H](O)[C@H](Cc1ccccc1)NC(=O)OC(C)(C)C)C(C)(C)C` (relative stereo) [Compound 263, [1R*,2S*(2S*,3R*)]-N-[3-[[3-[[(1,1-Dimethylethoxy)carbonyl]amino]-2-hydroxy-4-phenylbutyl]amino]-2-hydroxy-1-(phenylmethyl)propyl]-N^2-[(methylamino)carbonyl]-3-methyl-L-valinamide]: in assay [1], the IC50 was determined as 340 nM. In addition, at HIV protease, the inhibition at 10 µM was found to be 98%.

Regarding `CC(C)(C)OC(=O)N[C@@H](Cc1ccccc1)[C@H](O)CNC[C@@H](O)[C@H](Cc1ccccc1)NC(=O)[C@H](CCO)NC(=O)OCc1ccccc1` (relative stereo) [Compound 264, [1R*2S*(2S*,3R*)]-N-[3-[[3-[[(1,1-Dimethylethoxy)carbonyl]amino]-2-hydroxy-4-phenylbutyl]amino]-2-hydroxy-l-(phenylmethyl)propyl]-N^2-[(phenylmethoxy)carbonyl]-L-homoserinamide], the 50% inhibitory concentration (IC50) in assay [1] was determined as 160 nM. The inhibition at 10 µM at HIV protease amounted to 99%.

For `CC(C)[C@H](NC(=O)OCc1nc(-c2ccccc2)c[nH]1)C(=O)N[C@@H](Cc1ccccc1)[C@H](O)CNC[C@@H](O)[C@H](Cc1ccccc1)NC(=O)OC(C)(C)C` (relative stereo) [Compound 265, [1R*,2S*(2S*,3R*)]-N-[3-[[3-[[(1,1-Dimethylethoxy)carbonyl]amino]-2-hydroxy-4-phenylbutyl]amino]-2-hydroxy-1-(phenylmethyl)propyl]-N^2-[[(4-phenyl-1H-imidazol-2-yl)methoxylcarbonyl]-L-valinamide], the IC50 in assay [1] is 2600 nM. Also, on HIV protease, the inhibition at 10 µM was found to be 100%.

Regarding `CC(C)[C@H](NC(=O)NCc1nc2ccccc2[nH]1)C(=O)N[C@@H](Cc1ccccc1)[C@H](O)CNC[C@@H](O)[C@H](Cc1ccccc1)NC(=O)OC(C)(C)C` (relative stereo) [Compound 273, [1R*,2S*(2S*,3R*)]-N^2-[[(1H-Benzimidazol-2-ylmethyl)amino]carbonyl]-N-[3-[[3-[[(1,1-dimethylethoxy)carbonyl]amino]-2-hydroxy-4-phenylbutyl]amino]-2-hydroxy-1-(phenylmethyl)propyl]-L-valinamide], in assay [1], the IC50 is 1700 nM. In addition, on HIV protease, the inhibition at 10 µM came to 100%.

Take `CC(C)[C@H](NC(=O)OCC1=Cc2ccccc2C1)C(=O)N[C@@H](Cc1ccccc1)[C@H](O)CNC[C@@H](O)[C@H](Cc1ccccc1)NC(=O)OC(C)(C)C` (relative stereo) [Compound 280, [1R*, 2S* (2S*, 3R*)]-N-[3-[[3-[[(1,1-Dimethylethoxy)carbonyl]amino]-2-hydroxy-4-phenylbutyl]amino]-2-hydroxy-1-(phenylmethyl)propyl]-N^2-[[(1H-inden-2-yl)methoxy]carbonyl]-L-valinamide]: the IC50 in assay [1] was found to be 50 nM. Moreover, the inhibition at 10 µM on HIV protease is 100%.

With `CC(C)[C@H](NC(=O)OCc1ccc2ccccc2n1)C(=O)N[C@@H](Cc1ccccc1)[C@H](O)CNC[C@@H](O)[C@H](Cc1ccccc1)NC(=O)OC(C)(C)C` (relative stereo) [Compound 281, [1R*,2S*(2S*,3R*)]]-N-[3-[[1,1-Dimethylethoxy)carbonyl]amino]-2-hydroxy-4-phenylbutyl]amino]-2-hydroxy-1-(phenylmethyl)-proyl]-N^2-[(2-quinolinylmethoxy)carbonyl]-L-valinamide], in assay [1], the IC50 came out at 290 nM. The inhibition at 10 µM on HIV protease was found to be 100%.

Regarding `C[C@H](NC=O)C(=O)N[C@H](C(=O)N[C@@H](Cc1ccccc1)[C@H](O)CNC[C@@H](O)[C@H](Cc1ccccc1)NC(=O)OC(C)(C)C)C(C)(C)C` (relative stereo) [Compound 284, [1R*,2S*(2S*,3R*)]-N-[3-[[(1,1-Dimethylethoxy)carbonyl]amino]-2-hydroxy-4-phenylbutyl]amino]-2-hydroxy-1-(phenylmethyl)propyl]-N^2-(N-formyl-L-alanyl)-3-methyl-L-valinamide], the IC50 in assay [1] came to 4400 nM. For the same molecule, the inhibition at 10 µM on HIV protease is 100%.

On to `CC(C)(C)OC(=O)N[C@@H](Cc1ccccc1)[C@H](O)CNC[C@@H](O)[C@H](Cc1ccccc1)NC(=O)[C@@H](NC(=O)[C@H](Cc1ccccc1)NC=O)C(C)(C)C` (relative stereo) [Compound 285, [1R*,2S*(2S*,3R*)]-N-[3-[[(1,1-Dimethylethoxy)carbonyl]amino]-2-hydroxy-4-phenylbutyl]amino]-2-hydroxy-1-(phenylmethyl)propyl]-N^2-(N-formyl-L-phenylalanyl)-3-methyl-L-valinamide], for which, in assay [1], the IC50 came out at 650 nM. Moreover, the inhibition at 10 µM on HIV protease turned out to be 100%.

For the molecule `CC(C)(C)OC(=O)N[C@@H](Cc1ccccc1)[C@H](O)CNC[C@@H](O)[C@H](Cc1ccccc1)NC(=O)[C@@H](NC(=O)CNC=O)C(C)(C)C` (relative stereo) [Compound 286, [1R*,2S*(2S*,3R*)]-N-[3-[[(1,1-Dimethylethoxy)carbonyl]amino]-2-hydroxy-4-phenylbutyl]amino]-2-hydroxy-1-(phenylmethyl)propyl]-N^2-(N-formylglycyl)-3-methyl-L-valinamide], the IC50 in assay [1] came to 5000 nM. For the same molecule, the inhibition at 10 µM on HIV protease stood at 99%.

On to `CC(C)[C@H](NC(=O)OCc1nc2ccccc2o1)C(=O)N[C@@H](Cc1ccc(O)cc1)[C@H](O)CNC[C@@H](O)[C@H](Cc1ccccc1)NC(=O)OC(C)(C)C` (relative stereo) [Compound 288, [1R*,2S*(2S*,3R*)]-N^2-[[(2-Benzoxazolyl)methoxy]carbonyl]-N-[3-[[3-[[(1.1-dimethylethoxy)carbonyl]amino]-2-hydroxy-4-phenylbutyl]amino]-2-hydroxy-1-[(4-hydroxyphenyl)methyl]propyl]-L-valinamide], for which the IC50 in assay [1] stood at 470 nM. In addition, the inhibition at 10 µM at HIV protease amounted to 100%.

As for `COC(=O)N[C@H](C(=O)N[C@@H](Cc1ccc(OCCc2ccccn2)cc1)[C@H](O)CNC[C@@H](O)[C@H](Cc1ccccc1)NC(=O)OC(C)(C)C)C(C)(C)C` (relative stereo) [Compound 297, [1R*,2S*(2S*,3R*)]-N-[3-[[3-[[(1,1-Dimethylethoxy)carbonyl]amino]-2-hydroxy-4-phenylbutyl]amino]-2-hydroxy-1-[[4-[r2-(2-pyridinyl)ethoxy]phenyl]methyl]propyl]-N^2-(2-methoxycarbonyl)-3-methyl-L-valinamide], the IC50 in assay [1] was found to be 50 nM. In addition, the inhibition at 10 µM at HIV protease came to 100%.

With `CN(C)C(=O)N[C@H](C(=O)N[C@@H](Cc1ccccc1)[C@H](O)CNC[C@@H](O)[C@H](Cc1ccccc1)NC(=O)OC(C)(C)C)C(C)(C)C` (relative stereo) [Compound 305, [1R*,2S* (2S*,3R*)]-N-[3-[[3-[[(1,1Dimethylethoxy)carbonyl]amino]-2-hydroxy-4-phenylbutyl]amino]-2-hydroxy-1-(phenylmethyl)propyl]-N^2-[(dimethylamino)carbonyl)-3-methyl-L-valinamide], the IC50 in assay [1] stood at 200 nM. The inhibition at 10 µM on HIV protease came to 100%.

Consider `COC(=O)N[C@H](C(=O)N[C@@H](Cc1ccccc1)[C@H](O)CNC[C@@H](O)[C@H](Cc1ccccc1)NC(=O)[C@@H](NC(=O)OC)C(C)(C)C)C(C)(C)C` (relative stereo) [Compound 324, 1S-(1S*,2R*)-N, N'-Iminobis[2-hydroxy-1-(phenylmethyl)-3,1-propanediyl]bis(imino)bis[1-(1,1-dimethylethyl)-2-oxo-2,1-ethanediyl]]biscarbamic acid, dimethyl ester], for which, in assay [1], the IC50 was 220 nM. Besides, the inhibition at 10 µM at HIV protease stood at 100%.
